Assay results published in patent publication US20240173432A1, “Compositions and Methods for Treatment of Myotonic Dystrophy Type 1 with CRISPR/SluCas9” (Vertex Pharmaceuticals Incorporated, priority 2021, published 2024).

How the values were obtained:
[1] = test system: CAG foci in primary DM1 patient myoblasts; experiment: Single-cut screening: CAG foci staining; format: cell-based, human; settings: single sgRNA; for % of CAG foci positive nuclei (DNA-PKi): DNA-PKi treated
Procedure, shortened: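 Primary DM1 patient myoblasts were PFA-fixed and hybridized with […] (1 ng/μL, 15 min at 80° C) in 30% formamide/2×SSC, followed by anti-MBNL1 immunostaining and Hoechst counterstain. CAG RNA foci were quantified by high-content confocal imaging after single-cut SuCas9 sgRNA editing.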

[2] = test system: 3′ UTR of the human DMPK gene; experiment: Single-cut screening: indel editing efficiency by Sanger sequencing and ICE analysis in primary DM1 patient myoblasts; format: cell-based; settings: vehicle-treated samples; for Indel efficiency: single SluCas9 sgRNA RNP in primary DM1 patient myoblasts, Sanger sequencing and ICE analysis
Procedure, shortened: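 Indels were estimated by ICE from Sanger chromatograms of PCR amplicons covering the DMPK 3′ UTR wild-type allele, using only vehicle-treated samples; sgRNAs with R2<0.9 are flagged. Samples came from primary DM1 patient myoblasts (2 × 10^5) harvested 72 h after nucleofection with 30 pmol SluCas9 and 90 pmol single sgRNA RNP.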

[3] = test system: CUG foci in primary DM1 patient myoblasts; experiment: Single-cut screening: FISH staining of CUG RNA foci; format: cell-based, human; settings: single sgRNA, primary DM1 patient myoblasts; for % of CUG foci free nuclei (DNA-PKi): DNA-PKi treated
Procedure, shortened: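 CD56-purified primary DM1 patient myoblasts nucleofected with SluCas9:sgRNA RNP (30:90 pmol, single-cut), then DMSO or 3 μM DNA-PK inhibitor for 48 h. At 72 h post-nucleofection, cells fixed and stained for CUG foci with Cy3-PNA(CAG)5 probe (1 ng/μL, 80 °C), co-stained for MBNL1 and Hoechst, imaged by high-content confocal microscopy.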

Substance	% of CAG foci positive nuclei (DNA-PKi) [1]	% of CAG foci positive nuclei (Vehicle) [1]	Indel efficiency [2]	% of CUG foci free nuclei (DNA-PKi) [3]	% of CUG foci free nuclei (Vehicle) [3]	indel efficiency (Sanger sequencing and ICE analysis) ([2]; single-cut, SluCas9 RNP, 72 hrs post nucleofection, wild-type allele)
CGCCCCCTAGCggccggggagg (guide RNA; as printed in the source, key not given here) [SluU41]	1.08%	0.74%	13%	47.52%	13.34%	
CGCCGAAGCGGGCGGAGCCGGC (guide RNA; chemistry not fully specified) [SluD58]	1.96%	1.37%	33%	31.45%	18.03%	
CGCGCCAGACGCTCCCCAGAGC (listed as DNA, chemistry not fully specified) [SluD34]	2.01%	3.9%	71%	31.92%	15%	high editing IN4DEL efficiency
CGGAGCGGTTGTGAACTGGCAG (guide RNA; chemistry not fully specified) [SluU20]	1.43%	1.15%	30%	49.95%	18.45%	
CGGATCACAGGACTGGAGCTGG (guide RNA; chemistry not fully specified) [SluU29]	1.82%	1.18%	67%	48.49%	27.28%	
CGGCTCCGCCCGCTTCGGCGGT (guide RNA; chemistry not fully specified) [SluD60]	1.16%	1.02%	0%	16.87%	6.71%	
CGTGGATGGGCAAACTGCAGGC (guide RNA; chemistry not fully specified) [SluD12]	1.21%	4.65%	44%	23.77%	17.76%	
CTAGCggccggggagggagggg (guide RNA; as printed in the source, key not given here) [SluU47]	2.4%	1%	0%	12.71%	5.91%	
CTCAGTGCATCCAAAACGTGGA (guide RNA; chemistry not fully specified) [SluD77]	3.13%	1.8%	17%	28.94%	14.94%	
CTCCACGCACCCCCACCTATCG (guide RNA; chemistry not fully specified) [SluD22]	1.54%	0.76%	21%	20.98%	7.86%	
CTCCGAGAGCAGCGCAAGTGAG (guide RNA; chemistry not fully specified) [SluD52]	1.57%	1.26%	6%	26.8%	7.59%	
CTGCAGTTTGCCCATCCACGTC (guide RNA; chemistry not fully specified) [SluD10]	1.26%	2.84%	18%	27.41%	13.43%	
